From patent US10202377B2, “3-(1H-benzo[D]imidazol-2-yl)-1H-pyrazolo[3,4-C]pyridine and therapeutic uses thereof” (Samumed, LLC, priority 2014, dated 2019)

Experiments:
[1] = tested on: Wnt activity (Sp5-Luc reporter, SW480 colon carcinoma cells); experiment: Sp5-Luc Wnt reporter gene screening assay in SW480 colon carcinoma cells; settings: Homo sapiens
Experimental: The screening assay for Wnt activity is described as follows.
SW480 colon carcinoma cells were transduced with a lentiviral vector expressing luciferase with a human Sp5 promoter consisting of a sequence of eight TCF/LEF binding sites. SW480 cells stably expressing the Sp5-Luc reporter gene and a hygromycin resistance gene were selected by treatment with 150 μg/ml of hygromycin for 7 days. These stably transduced SW480 cells were expanded in cell culture and used for all further screening activities. For Sp5-Luc reporter gene assays, the cells were plated at 10,000 cells/well in 96-well plates with growth medium containing 10% fetal calf serum and incubated overnight at 37° C. and 5% CO2. […] Compound transfer from serially diluted source plates to assay plates containing the cells was accomplished using a pintool (Multimek 96, Beckman equipped with V&P Scientific FP1S50H pins) based liquid handling protocol. This protocol used a slotted pin to transfer 50 nl of compound from a source plate well to an assay plate well containing 50 μl of cells in growth medium. […] Control wells received 50 nl of DMSO treatment for normalization and calculating IC50 values. The treated cells were incubated at 37° C. and 5% CO2 for an additional forty-two hours. Following incubation, the growth medium was removed and 50 μl of BrightGlo luminescence reagent (Promega) was added to each well of the 96-well assay plates. The plates were placed on an orbital shaker for 5 min and then luminescence was quantified on the Victor3 (Perkin Elmer) plate reader.

[2] = tested on: primary human fibroblasts derived from IPF patients (LL29 cells); experiment: Inhibition of fibrosis (αSMA staining) in TGF-β1-treated primary human fibroblasts from IPF patients; format: cell-based; settings: Fibroblast, 96 h, TGF-β1 20 ng/mL, 4 days
How it was run: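 LL29 IPF fibroblasts in F12 with 1% FBS were stimulated with TGF-β1 (20 ng/mL) and incubated 4 days at 37 °C. SYTOX-positive dead cells were excluded, and αSMA-positive cells were counted by immunostaining as % of total. Values were normalized to TGF-β1/DMSO wells on the same plate, and EC50 derived.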

[3] = tested on: primary human mesenchymal stem cells (hMSCs); experiment: Chondrogenesis induction in primary human mesenchymal stem cells (nodule imaging, Rhodamine B/Nile Red); format: cell-based; settings: 6 days, dose at which the compound reached maximum chondrogenesis activity, dose range 10-2700 nM
Experimental: The above synthesized compounds were screened using primary human mesenchymal stem cells (hMSCs) to determine their ability to induce chondrogenesis (process by which cartilage is developed).
Human Mesenchymal Stem Cell Culture: Primary human mesenchymal stem cells (hMSCs) were purchased from Lonza (Walkersville, Md.) and expanded in Mesenchymal Stem Cell Growth Media (Lonza). Cells between passage 3 and 6 were used for the experiments.
Compound Screening: Each compound was dissolved in DMSO as a 10 mM stock and used to prepare compound source plates. Serial dilution (1:3, 6-point dose-response curves from 2700 nM to 10 nM) and compound transfer was performed using the ECHO 550 (Labcyte, Sunnyvale, Calif.) into 96-well clear bottom assay plates (Greiner Bio-One) with appropriate DMSO backfill for a final DMSO concentration of 0.03%. hMSCs were plated at 20,000 cells/well in 250 μL/well Incomplete Chondrogenic Induction Medium (Lonza; DMEM, dexamethasone, ascorbate, insulin-transferrin-selenium [ITS supplement], gentamycin-amphotericin [GA-1000], sodium pyruvate, proline and L-glutamine). TGF-β3 (10 ng/mL) was used as a positive control for differentiation while negative control wells were treated with 75 nL DMSO for normalization and calculating EC50 values. Cells were incubated at 37° C. and 5% CO2 for 6 days. To image chondrogenic nodules, the cells were fixed using 4% formaldehyde (Electron Microscopy Sciences), and stained with 2 μg/mL Rhodamine B (Sigma-Aldrich) and 20 μM Nile Red (Sigma-Aldrich) [Johnson K., et. al, A Stem Cell-Based Approach to Cartilage Repair, Science, (2012), 336(6082), 717-721]. The nodules imaged (4 images per well at 4× magnification) by excitation at 531 nm and emission at 625 nm and quantified using the CellInsight CX5 (Thermo Scientific). Number of nodules in each well was normalized to the average of 3 DMSO treated wells on the same plate using Excel (Microsoft Inc.). The normalized averages (fold change over DMSO) of 3 replicate wells for each compound concentration were calculated. Due to solubility limitations of some of the compounds, curve fitting was incomplete leading to inaccurate EC50 determinations.
Using TGF-β3 as a positive control, the concentration of test compounds required to induce equivalent levels of chondrogenesis is reported. In addition, the maximum activity of each compound and the respective dose that each compound reached maximum chondrogenesis activity is reported.

| Structure (SMILES) | IC50 [1] | EC50 [2] | Conc (nM) of Max. activity [3] |
| --- | --- | --- | --- |
| CN(C)Cc1cncc(-c2cc3c(-c4nc5c(-c6cccc(F)c6)cccc5[nH]4)n[nH]c3cn2)c1 [Compound 13, 1-(5-(3-(4-(3-Fluorophenyl)-1H-benzo[d]imidazol-2-yl)-1H-pyrazolo[3,4-c]pyridin-5-yl)pyridin-3-yl)-N,N-dimethylmethanamine] | 19.1 nM | 9 nM | 300 nM |
| CC(C)(C)C(=O)Nc1cncc(-c2cc3c(-c4nc5c(-c6ccc(F)cc6)cccc5[nH]4)n[nH]c3cn2)c1 [Compound 34, N-(5-(3-(4-(4-Fluorophenyl)-1H-benzo[d]imidazol-2-yl)-1H-pyrazolo[3,4-c]pyridin-5-yl)pyridin-3-yl)pivalamide] | 31.2 nM | 47 nM | 2700 nM |
| Nc1cncc(-c2cc3c(-c4nc5c(-c6ccccc6F)cccc5[nH]4)n[nH]c3cn2)c1 [Compound 55, 5-(3-(4-(2-Fluorophenyl)-1H-benzo[d]imidazol-2-yl)-1H-pyrazolo[3,4-c]pyridin-5-yl)pyridin-3-amine] | 19.5 nM | 9 nM | 900 nM |
| c1cncc(-c2cc3c(-c4nc5c(-c6cccnc6)cccc5[nH]4)n[nH]c3cn2)c1 [Compound 82, 5-(Pyridin-3-yl)-3-(4-(pyridin-3-yl)-1H-benzo[d]imidazol-2-yl)-1H-pyrazolo[3,4-c]pyridine] | 4.5 nM | 9 nM | 30 nM |
| CN(C)Cc1cncc(-c2cc3c(-c4nc5c(N6CCCCC6)cccc5[nH]4)n[nH]c3cn2)c1 [Compound 169, N,N-dimethyl-1-(5-(3-(4-(piperidin-1-yl)-1H-benzo[d]imidazol-2-yl)-1H-pyrazolo[3,4-c]pyridin-5-yl)pyridin-3-yl)methanamine] | 28.3 nM | 9 nM | 900 nM |
| Cc1cn(-c2cccc3[nH]c(-c4n[nH]c5cnc(-c6cncc(NC(=O)CC(C)C)c6)cc45)nc23)cn1 [Compound 184, 3-Methyl-N-(5-(3-(4-(4-methyl-1H-imidazol-1-yl)-1H-benzo[d]imidazol-2-yl)-1H-pyrazolo[3,4-c]pyridin-5-yl)pyridin-3-yl)butanamide] | 55.1 nM | 277 nM | 30 nM |
| CN1CCN(c2cccc3[nH]c(-c4n[nH]c5cnc(-c6cncc(N)c6)cc45)nc23)CC1 [Compound 211, 5-(3-(4-(4-Methylpiperazin-1-yl)-1H-benzo[d]imidazol-2-yl)-1H-pyrazolo[3,4-c]pyridin-5-yl)pyridin-3-amine] | 96.8 nM | 613 nM | 2700 nM |
| c1cncc(-c2cc3c(-c4nc5ccccc5[nH]4)n[nH]c3cn2)c1 [Compound 238, 3-(1H-Benzo[d]imidazol-2-yl)-5-(pyridin-3-yl)-1H-pyrazolo[3,4-c]pyridine] | 7.7 nM | 57 nM | 100 nM |
| CC(C)C(=O)Nc1cncc(-c2cc3c(-c4nc5c(-c6ccsc6)cccc5[nH]4)n[nH]c3cn2)c1 [Compound 269, N-(5-(3-(4-(Thiophen-3-yl)-1H-benzo[d]imidazol-2-yl)-1H-pyrazolo[3,4-c]pyridin-5-yl)pyridin-3-yl)isobutyramide] | 4.2 nM | 49 nM | 900 nM |
| CC(C)CC(=O)Nc1cncc(-c2cc3c(-c4nc5c(-c6ccoc6)cccc5[nH]4)n[nH]c3cn2)c1 [Compound 288, N-(5-(3-(4-(Furan-3-yl)-1H-benzo[d]imidazol-2-yl)-1H-pyrazolo[3,4-c]pyridin-5-yl)pyridin-3-yl)-3-methylbutanamide] | 6.8 nM | 9 nM | 10 nM |
| O=C(Nc1cncc(-c2cc3c(-c4nc5c(-c6cccs6)cccc5[nH]4)n[nH]c3cn2)c1)C1CC1 [Compound 331, N-(5-(3-(4-(Thiophen-2-yl)-1H-benzo[d]imidazol-2-yl)-1H-pyrazolo[3,4-c]pyridin-5-yl)pyridin-3-yl)cyclopropanecarboxamide] | 17.2 nM | 29 nM | 300 nM |
| Cc1ccc(-c2cccc3[nH]c(-c4n[nH]c5cnc(-c6cncc(N)c6)cc45)nc23)s1 [Compound 367, 5-(3-(4-(5-Methylthiophen-2-yl)-1H-benzo[d]imidazol-2-yl)-1H-pyrazolo[3,4-c]pyridin-5-yl)pyridin-3-amine] | 3.5 nM | 9 nM | 30 nM |
| CC(=O)c1ccc(-c2cccc3[nH]c(-c4n[nH]c5cnc(-c6cncc(NC(=O)CC(C)C)c6)cc45)nc23)s1 [Compound 392, N-(5-(3-(4-(5-Acetylthiophen-2-yl)-1H-benzo[d]imidazol-2-yl)-1H-pyrazolo[3,4-c]pyridin-5-yl)pyridin-3-yl)-3-methylbutanamide] | 32.1 nM | 267 nM | 2700 nM |
| Cc1ccncc1-c1cc2c(-c3nc4c(-c5cc(F)cc(CNS(C)(=O)=O)c5)cccc4[nH]3)n[nH]c2cn1 [Compound 421, N-(3-Fluoro-5-(2-(5-(4-methylpyridin-3-yl)-1H-pyrazolo[3,4-c]pyridin-3-yl)-1H-benzo[d]imidazol-4-yl)benzyl)methanesulfonamide] | 10 nM | 9 nM | 100 nM |
| CC(C)Nc1cncc(-c2cc3c(-c4nc5c(-c6cc(F)cc(NCCN(C)C)c6)cccc5[nH]4)n[nH]c3cn2)c1 [Compound 454, N^1-(3-Fluoro-5-(2-(5-(5-(isopropylamino)pyridin-3-yl)-1H-pyrazolo[3,4-c]pyridin-3-yl)-1H-benzo[d]imidazol-4-yl)phenyl)-N^2,N^2-dimethylethane-1,2-diamine] | 51.6 nM | 117 nM | 300 nM |
| Fc1cccc(-c2cccc3[nH]c(-c4n[nH]c5cnc(-c6cn[nH]c6)cc45)nc23)c1 [Compound 939, 3-(4-(3-Fluorophenyl)-1H-benzo[d]imidazol-2-yl)-5-(1H-pyrazol-4-yl)-1H-pyrazolo[3,4-c]pyridine] | 25 nM | 9 nM | 30 nM |
| COc1cc(F)cc(-c2cccc3[nH]c(-c4n[nH]c5cnc(-c6cncc(NC(=O)CC(C)C)c6)cc45)nc23)c1 [Compound 1394, N-(5-(3-(4-(3-Fluoro-5-methoxyphenyl)-1H-benzo[d]imidazol-2-yl)-1H-pyrazolo[3,4-c]pyridin-5-yl)pyridin-3-yl)-3-methylbutanamide] | 183 nM | 21 nM | – |
